According to the supplement of paper PMC10307832:

Tests used:
Assay in all cases: relative viability (nuclei count vs DMSO), 5 days (fraction); higher = more cells survive
A-427 = test system: A-427
Method in brief: (§1)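 Each reported value is a median over duplicate plates. It expresses relative viability: treated-well nuclei count divided by vehicle-well nuclei count. Lung cancer cell lines in 1536-well plates were dosed by pin tool a day after seeding, alone with one drug or with a fixed anchor-drug dose plus five library-drug doses (not always all listed) in √10 steps, and nuclei were counted after 5 days.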

HCC-15 = test system: HCC-15
Method in brief: as §1

HCC-78 = test system: HCC-78
Method in brief: as §1

HOP-62 = test system: HOP-62
Method in brief: as §1

LC-2-ad = test system: LC-2-ad
Method in brief: as §1

LXF-289 = test system: LXF-289
Method in brief: as §1

NCI-H1734 = test system: NCI-H1734
Method in brief: as §1

NCI-H1755 = test system: NCI-H1755
Method in brief: as §1

NCI-H1792 = test system: NCI-H1792
Method in brief: as §1

NCI-H1915 = test system: NCI-H1915
Method in brief: as §1

NCI-H1975 = test system: NCI-H1975
Method in brief: as §1

NCI-H2126 = test system: NCI-H2126
Method in brief: as §1

NCI-H2228 = test system: NCI-H2228
Method in brief: as §1

NCI-H2342 = test system: NCI-H2342
Method in brief: as §1

NCI-H2347 = test system: NCI-H2347
Method in brief: as §1

NCI-H358 = test system: NCI-H358
Method in brief: as §1

NCI-H522 = test system: NCI-H522
Method in brief: as §1

NCI-H647 = test system: NCI-H647
Method in brief: as §1

PC-3 [JPC-3] = test system: PC-3 [JPC-3]
Method in brief: as §1

RERF-LC-KJ = test system: RERF-LC-KJ
Method in brief: as §1

SK-LU-1 = test system: SK-LU-1
Method in brief: as §1

SW 1573 = test system: SW 1573
Method in brief: as §1

Question: How did the relative viability (A-427; first compound 0.01 µM) turn out when `CCN(CC)CCCCNc1ncc2cc(-c3cc(OC)cc(OC)c3)c(NC(=O)NC(C)(C)C)nc2n1` + Nc1nc2[nH]cc(CCc3ccc(C(=O)N[C@@H](CCC(=O)O)C(=O)O)cc3)c2c(=O)[nH]1 [Pemetrexed] (partner 0.2 µM) was run?
Answer: 1.01

Question: What about the relative viability (A-427; first compound 0.03162 µM) of the same molecule?
Answer: 1

Question: And the relative viability (A-427; first compound 0.1 µM)?
Answer: 1.06

Question: What about the relative viability (A-427; first compound 0.3162 µM) of the same molecule?
Answer: 1.23

Question: And the relative viability (A-427; first compound 1 µM)?
Answer: 0.965

Question: What about the relative viability (HCC-15; first compound 0.01 µM) of the same molecule?
Answer: 0.21

Question: And the relative viability (HCC-15; first compound 0.03162 µM)?
Answer: 0.237

Question: What about the relative viability (HCC-15; first compound 0.1 µM) of the same molecule?
Answer: 0.206

Question: And the relative viability (HCC-15; first compound 0.3162 µM)?
Answer: 0.209

Question: What about the relative viability (HCC-15; first compound 1 µM) of the same molecule?
Answer: 0.207

Question: And the relative viability (HCC-78; first compound 0.01 µM)?
Answer: 0.919

Question: What about the relative viability (HCC-78; first compound 0.03162 µM) of the same molecule?
Answer: 0.933

Question: What about the relative viability (HCC-78; first compound 0.1 µM) of the same molecule?
Answer: 0.949

Question: What about the relative viability (HCC-78; first compound 0.3162 µM) of the same molecule?
Answer: 0.947

Question: What about the relative viability (HCC-78; first compound 1 µM) of the same molecule?
Answer: 0.89

Question: And the relative viability (HOP-62; first compound 0.01 µM)?
Answer: 0.33

Question: What about the relative viability (HOP-62; first compound 0.03162 µM) of the same molecule?
Answer: 0.275

Question: What about the relative viability (HOP-62; first compound 0.1 µM) of the same molecule?
Answer: 0.362

Question: And the relative viability (HOP-62; first compound 0.3162 µM)?
Answer: 0.314

Question: What about the relative viability (HOP-62; first compound 1 µM) of the same molecule?
Answer: 0.351

Question: What about the relative viability (LC-2-ad; first compound 0.01 µM) of the same molecule?
Answer: 0.293

Question: What about the relative viability (LC-2-ad; first compound 0.03162 µM) of the same molecule?
Answer: 0.267

Question: And the relative viability (LC-2-ad; first compound 0.1 µM)?
Answer: 0.272

Question: And the relative viability (LC-2-ad; first compound 0.3162 µM)?
Answer: 0.264

Question: And the relative viability (LC-2-ad; first compound 1 µM)?
Answer: 0.271

Question: What about the relative viability (LXF-289; first compound 0.01 µM) of the same molecule?
Answer: 0.923

Question: And the relative viability (LXF-289; first compound 0.03162 µM)?
Answer: 1.02

Question: And the relative viability (LXF-289; first compound 0.1 µM)?
Answer: 0.907

Question: And the relative viability (LXF-289; first compound 0.3162 µM)?
Answer: 0.884

Question: What about the relative viability (LXF-289; first compound 1 µM) of the same molecule?
Answer: 0.849

Question: And the relative viability (NCI-H1734; first compound 0.01 µM)?
Answer: 0.405

Question: What about the relative viability (NCI-H1734; first compound 0.03162 µM) of the same molecule?
Answer: 0.387

Question: What about the relative viability (NCI-H1734; first compound 0.1 µM) of the same molecule?
Answer: 0.418

Question: And the relative viability (NCI-H1734; first compound 0.3162 µM)?
Answer: 0.409

Question: What about the relative viability (NCI-H1734; first compound 1 µM) of the same molecule?
Answer: 0.384

Question: And the relative viability (NCI-H1755; first compound 0.01 µM)?
Answer: 0.413

Question: And the relative viability (NCI-H1755; first compound 0.03162 µM)?
Answer: 0.572

Question: What about the relative viability (NCI-H1755; first compound 0.1 µM) of the same molecule?
Answer: 0.356

Question: And the relative viability (NCI-H1755; first compound 0.3162 µM)?
Answer: 0.448

Question: What about the relative viability (NCI-H1755; first compound 1 µM) of the same molecule?
Answer: 0.435

Question: And the relative viability (NCI-H1792; first compound 0.01 µM)?
Answer: 1.17

Question: What about the relative viability (NCI-H1792; first compound 0.03162 µM) of the same molecule?
Answer: 0.932

Question: And the relative viability (NCI-H1792; first compound 0.1 µM)?
Answer: 0.634

Question: And the relative viability (NCI-H1792; first compound 0.3162 µM)?
Answer: 0.945

Question: And the relative viability (NCI-H1792; first compound 1 µM)?
Answer: 0.296

Question: And the relative viability (NCI-H1915; first compound 0.01 µM)?
Answer: 0.511

Question: What about the relative viability (NCI-H1915; first compound 0.03162 µM) of the same molecule?
Answer: 0.521

Question: And the relative viability (NCI-H1915; first compound 0.1 µM)?
Answer: 0.558

Question: What about the relative viability (NCI-H1915; first compound 0.3162 µM) of the same molecule?
Answer: 0.518

Question: What about the relative viability (NCI-H1915; first compound 1 µM) of the same molecule?
Answer: 0.445

Question: And the relative viability (NCI-H1975; first compound 0.01 µM)?
Answer: 0.286

Question: What about the relative viability (NCI-H1975; first compound 0.03162 µM) of the same molecule?
Answer: 0.306

Question: What about the relative viability (NCI-H1975; first compound 0.1 µM) of the same molecule?
Answer: 0.318

Question: What about the relative viability (NCI-H1975; first compound 0.3162 µM) of the same molecule?
Answer: 0.331

Question: And the relative viability (NCI-H1975; first compound 1 µM)?
Answer: 0.283

Question: What about the relative viability (NCI-H2126; first compound 0.01 µM) of the same molecule?
Answer: 0.646

Question: And the relative viability (NCI-H2126; first compound 0.03162 µM)?
Answer: 0.764

Question: What about the relative viability (NCI-H2126; first compound 0.1 µM) of the same molecule?
Answer: 0.644

Question: What about the relative viability (NCI-H2126; first compound 0.3162 µM) of the same molecule?
Answer: 0.661

Question: What about the relative viability (NCI-H2126; first compound 1 µM) of the same molecule?
Answer: 0.749

Question: And the relative viability (NCI-H2228; first compound 0.01 µM)?
Answer: 0.318

Question: What about the relative viability (NCI-H2228; first compound 0.03162 µM) of the same molecule?
Answer: 0.344

Question: And the relative viability (NCI-H2228; first compound 0.1 µM)?
Answer: 0.418

Question: What about the relative viability (NCI-H2228; first compound 0.3162 µM) of the same molecule?
Answer: 0.326

Question: What about the relative viability (NCI-H2228; first compound 1 µM) of the same molecule?
Answer: 0.335

Question: And the relative viability (NCI-H2342; first compound 0.01 µM)?
Answer: 0.762

Question: What about the relative viability (NCI-H2342; first compound 0.03162 µM) of the same molecule?
Answer: 0.777

Question: And the relative viability (NCI-H2342; first compound 0.1 µM)?
Answer: 0.803

Question: What about the relative viability (NCI-H2342; first compound 0.3162 µM) of the same molecule?
Answer: 0.818

Question: What about the relative viability (NCI-H2342; first compound 1 µM) of the same molecule?
Answer: 0.755

Question: And the relative viability (NCI-H2347; first compound 0.01 µM)?
Answer: 0.419

Question: And the relative viability (NCI-H2347; first compound 0.03162 µM)?
Answer: 0.555

Question: And the relative viability (NCI-H2347; first compound 0.1 µM)?
Answer: 0.423

Question: And the relative viability (NCI-H2347; first compound 0.3162 µM)?
Answer: 0.412

Question: What about the relative viability (NCI-H2347; first compound 1 µM) of the same molecule?
Answer: 0.382

Question: What about the relative viability (NCI-H358; first compound 0.01 µM) of the same molecule?
Answer: 0.163

Question: And the relative viability (NCI-H358; first compound 0.03162 µM)?
Answer: 0.169

Question: And the relative viability (NCI-H358; first compound 0.1 µM)?
Answer: 0.16

Question: And the relative viability (NCI-H358; first compound 0.3162 µM)?
Answer: 0.216

Question: And the relative viability (NCI-H358; first compound 1 µM)?
Answer: 0.167

Question: What about the relative viability (NCI-H522; first compound 0.01 µM) of the same molecule?
Answer: 0.989

Question: And the relative viability (NCI-H522; first compound 0.03162 µM)?
Answer: 0.918

Question: And the relative viability (NCI-H522; first compound 0.1 µM)?
Answer: 1.09

Question: What about the relative viability (NCI-H522; first compound 0.3162 µM) of the same molecule?
Answer: 0.888

Question: And the relative viability (NCI-H522; first compound 1 µM)?
Answer: 0.921

Question: And the relative viability (NCI-H647; first compound 0.01 µM)?
Answer: 0.188

Question: And the relative viability (NCI-H647; first compound 0.03162 µM)?
Answer: 0.127

Question: What about the relative viability (NCI-H647; first compound 0.1 µM) of the same molecule?
Answer: 0.157

Question: And the relative viability (NCI-H647; first compound 0.3162 µM)?
Answer: 0.161

Question: What about the relative viability (NCI-H647; first compound 1 µM) of the same molecule?
Answer: 0.136

Question: And the relative viability (PC-3 [JPC-3]; first compound 0.03162 µM)?
Answer: 1

Question: And the relative viability (PC-3 [JPC-3]; first compound 0.1 µM)?
Answer: 1.15

Question: And the relative viability (PC-3 [JPC-3]; first compound 0.3162 µM)?
Answer: 1.7

Question: And the relative viability (PC-3 [JPC-3]; first compound 1 µM)?
Answer: 0.883

Question: What about the relative viability (RERF-LC-KJ; first compound 0.01 µM) of the same molecule?
Answer: 0.497

Question: What about the relative viability (RERF-LC-KJ; first compound 0.03162 µM) of the same molecule?
Answer: 0.487

Question: And the relative viability (RERF-LC-KJ; first compound 0.1 µM)?
Answer: 0.499

Question: And the relative viability (RERF-LC-KJ; first compound 0.3162 µM)?
Answer: 0.428

Question: And the relative viability (RERF-LC-KJ; first compound 1 µM)?
Answer: 0.514

Question: What about the relative viability (SK-LU-1; first compound 0.01 µM) of the same molecule?
Answer: 0.971

Question: What about the relative viability (SK-LU-1; first compound 0.03162 µM) of the same molecule?
Answer: 0.93

Question: And the relative viability (SK-LU-1; first compound 0.1 µM)?
Answer: 1.1

Question: And the relative viability (SK-LU-1; first compound 0.3162 µM)?
Answer: 1.18

Question: What about the relative viability (SK-LU-1; first compound 1 µM) of the same molecule?
Answer: 0.854

Question: And the relative viability (SW 1573; first compound 0.01 µM)?
Answer: 0.858

Question: What about the relative viability (SW 1573; first compound 0.03162 µM) of the same molecule?
Answer: 0.843

Question: And the relative viability (SW 1573; first compound 0.1 µM)?
Answer: 1.08

Question: What about the relative viability (SW 1573; first compound 0.3162 µM) of the same molecule?
Answer: 0.944

Question: And the relative viability (SW 1573; first compound 1 µM)?
Answer: 0.832
